The source of these data is patent publication US5147876A, “2,6-di,2,4,6-, 2,5,6-tri and 2,4,5,6-tetra-substituted pyrimidines, their pharmaceutically acceptable salts, pharmaceutical compositions containing same and their use in the treatment of neurological diseases” (Mitsui Petrochemical Industries, Ltd., priority 1988, dated 1992).

Structures are written as SMILES.

Data set [1] relates to neuro-2a (mouse neuroblastoma cells). As to the kind of experiment: Action on neuro-2a: proportion of cells containing outgrown neurites. In kind it is cell-based. As to conditions: mean ± S.D. The method, then:
(§1) The effects of the compounds of this invention on neuroblastoma cells were examined by the following method.
(§2) Mouse neuro 2a cells in the logarithmic growth period in the Dulbecco's modified Eagle's medium DMEM, containing 100 units/ml of penicillin G sodium and 100 micrograms/ml of streptomycin sulfate]containing 10 % of FCS were seeded in a 48-well plate so that the number of cells was 1,000 cells/well, and cultured for one day in 0.25 ml of the culture fluid in each well in an incubator containing 5 % of carbon dioxide gas in air at 37° C. Then, a 4 % aqueous glutaraldehyde solution in the same amount as a medium (0.25 ml) was added, and the culture fluid was left to stand at room temperature for 2 hours to fix the cells. After washing with water, a 0.05 % aqueous solution of methylene blue was added to stain the cells Under a microscope, the number of cells containing outgrown neurites (cells having at least one neurite with a length of at least two times as large as the long diameter of the cell) was counted visually, and the proportion of these cells in the entire cells was calculated. The well was observed over 5 or more visual fields (at least 2 % of the entire surface area of the well) continuous to the left and right from a mark put at the center of the well, and more than 200 cells was counted. One drug compound was used in 6 different concentrations at most, and three runs were conducted for each concentrations.

The next data set can be described thus: Acute toxicity on mice. In kind it is in vivo. As to conditions: mouse, in vivo, ip, 24 hours after administration; read-out: Estimated LD50. The method, then: The acute toxicity of the compounds of the invention was examined by the following method.
Male ddy-strain 5-week old mice, 4-6- per group, were used as experimental animals. Each of the compounds was intraperitoneally (i.p.), and the toxicity of the compound was assessed 24 hours after the administration.

For data set [2], the system named is NS-20Y (mouse neuroblastoma cells). As to the kind of experiment: Activity on NS-20Y cells: appearance of neurites. In kind it is cell-based. The method, then: as §1, §2
Mouse neuroblastoma cells NS-20Y were similarly cultured in a dish coated with polyornithine, and the effects of the compounds were examined.

By LD50 is commonly meant the dose at which mortality reaches 50%. Turning to `CN(C(=O)N1CCCCC1)c1ccnc(N2CCC(c3ccccc3)CC2)n1` [Compound 2210], the “Number of cells having neurites with a length at least two times the diameter of each cell/total number of cells” value (from here on “Number … of each cell/total number of cells”) in data set [1] (0.03 mM) is 9.5 ± 2.0%; in data set [1] (0.1 mM) it was 9.5 ± 1.9%. In the data set “Acute toxicity on mice”, the median lethal dose (LD50) at 24 h is 500 to 1000 mg/kg.

As to `CN1C(=O)Cc2cnc(N3CCN(C(c4ccc(F)cc4)c4ccc(F)cc4)CC3)nc21` [Compound 3184], the “Number … of each cell/total number of cells” value is reported as 3.7 ± 1.1% in data set [1] (0.03 mM), 13.9 ± 2.3% in data set [1] (0.1 mM), 18.4 ± 1.9% in data set [1] (0.3 mM) and 17.0 ± 2.1% in data set [1] (1 mM). For the same compound, the 50% lethal dose (LD50) at 24 h in the data set “Acute toxicity on mice” was 500 to 1000 mg/kg.

As to `CCOC(=O)N(C)c1ccnc(N2CCC(c3ccccc3)CC2)n1` [Compound 2242], the “Number … of each cell/total number of cells” value in data set [1] (0.03 mM) was found to be 3.3 ± 0.9%; in data set [1] (0.1 mM) it was 24.8 ± 2.9%. In addition, in the data set “Acute toxicity on mice”, the LD50 at 24 h is 500 to 1000 mg/kg.

With `CN(C(=O)c1cccnc1)c1ccnc(N2CCC(c3ccccc3)CC2)n1` [Compound 2140], the “Number … of each cell/total number of cells” value in data set [1] (0.03 mM) was 5.4 ± 3.9%; in data set [1] (0.1 mM), 17.0 ± 1.2%. The 50% lethal dose (LD50) at 24 h in “Acute toxicity on mice” was greater than 1000 mg/kg.

As to `CC(C)C1CCN(c2nccc(N(C)C(=O)c3ccccc3)n2)CC1` [Compound 147-1], the “Number … of each cell/total number of cells” value in data set [1] (0.03 mM) is on record as 6.6 ± 0.4%; in data set [1] (0.1 mM) it was 30.5 ± 6.1%. Besides, the LD50 at 24 h in “Acute toxicity on mice” was greater than 1000 mg/kg.

For `CC1CC(C)CN(c2nccc(N(C)C(=O)c3ccccc3)n2)C1` (stereo not drawn) [Compound 2004], the entries for the “Number … of each cell/total number of cells” value in data set [1] (0.03 mM) and in data set [1] (0.1 mM) were 6.6 ± 2.2% and 30.2 ± 6.4%, respectively. For the same compound, the 50% lethal dose (LD50) at 24 h in the data set “Acute toxicity on mice” is greater than 1000 mg/kg.

Turning to `CC(=O)N(C)c1ccnc(N2CCc3ccccc3C2)n1` [Compound 312], the “Number … of each cell/total number of cells” value was determined as 4.5 ± 0.4% in data set [1] (0.03 mM) and 9.7 ± 0.9% in data set [1] (0.1 mM). Also, the LD50 at 24 h in “Acute toxicity on mice” was greater than 1000 mg/kg.

Consider `CN(C(=O)Cc1ccccc1)c1ccnc(N2CCC(c3ccccc3)CC2)n1` [Compound 2250], for which the “Number … of each cell/total number of cells” value in data set [1] (0.1 mM) is 10.9 ± 3.9%; in data set [1] (0.3 mM) it was 19.2 ± 1.0%. In “Acute toxicity on mice”, the LD50 at 24 h is 500 to 1000 mg/kg.

On to `CC1CCCCN1c1nccc(N(C)C(=O)c2ccccc2)n1` (stereo not drawn) [Compound 154], for which the “Number … of each cell/total number of cells” value in data set [1] (0.03 mM) was determined as 5.2 ± 1.5%; in data set [1] (0.1 mM) it was 16.2 ± 2.1%. Also, in the data set “Acute toxicity on mice”, the median lethal dose (LD50) at 24 h is greater than 1000 mg/kg.

As to `CCOc1ccc(C(=O)N(C)c2ccnc(N3CCC(c4ccccc4)CC3)n2)cc1` [Compound 171-5], the “Number … of each cell/total number of cells” value worked out at 7.2 ± 1.1% in data set [1] (0.01 mM), 28.4 ± 2.2% in data set [1] (0.1 mM), 32.7 ± 0.6% in data set [1] (0.3 mM) and 14.0 ± 4.1% in data set [1] (1 mM). Besides, the 50% lethal dose (LD50) at 24 h in “Acute toxicity on mice” is greater than 1000 mg/kg.

Consider `CN(Cc1ccccc1)c1ccnc(N2CCC(c3ccccc3)CC2)n1` [Compound 2278], for which the “Number … of each cell/total number of cells” value in data set [1] (0.03 mM) worked out at 13.9 ± 6.3%; in data set [1] (0.1 mM), 12.5 ± 1.3%. For the same compound, the LD50 at 24 h in the data set “Acute toxicity on mice” is 500 to 1000 mg/kg.

Take `CN(C(=O)c1ccc(N)cc1)c1ccnc(N2CCC(c3ccccc3)CC2)n1` [Compound 2182]: the results for the “Number … of each cell/total number of cells” value in data set [1] (0.03 mM) and in data set [1] (0.1 mM) were 8.0 ± 3.2% and 2.7 ± 0.9%, respectively. Moreover, the median lethal dose (LD50) at 24 h in “Acute toxicity on mice” was 500 to 1000 mg/kg.

Regarding `CCN(CC)C(=O)N(C)c1ccnc(N2CCC(c3ccccc3)CC2)n1` [Compound 2302], the “Number … of each cell/total number of cells” value in data set [1] (0.03 mM) amounted to 8.0 ± 2.7%; in data set [1] (0.1 mM), 8.2 ± 4.7%. In the data set “Acute toxicity on mice”, the LD50 at 24 h was 500 to 1000 mg/kg.

Consider `CCCC1CCN(c2nccc(N(C)C(=O)c3ccccc3)n2)CC1` [Compound 146], for which the “Number … of each cell/total number of cells” value in data set [1] (0.03 mM) stood at 8.7 ± 2.0%; in data set [1] (0.1 mM), 40.0 ± 6.1%. Moreover, the 50% lethal dose (LD50) at 24 h in the data set “Acute toxicity on mice” was greater than 1000 mg/kg.

With `CN(C(=O)Nc1ccccc1)c1ccnc(N2CCC(c3ccccc3)CC2)n1` [Compound 2218], the “Number … of each cell/total number of cells” value in data set [1] (0.03 mM) turned out to be 9.7 ± 1.8%; in data set [1] (0.1 mM) it was 11.4 ± 6.1%. In the data set “Acute toxicity on mice”, the 50% lethal dose (LD50) at 24 h was 500 to 1000 mg/kg.

For the compound `CN(C(=O)c1ccccc1)c1ccnc(N2CCC(OS(=O)(=O)c3ccccc3)CC2)n1` [Compound 2350], the entries for the “Number … of each cell/total number of cells” value in data set [1] (0.3 mM) and in data set [1] (1 mM) were 5.9 ± 1.5% and 8.3 ± 2.0%, respectively. Besides, in the data set “Acute toxicity on mice”, the LD50 at 24 h is 500 to 1000 mg/kg.

In the case of `CN(C)c1nccc(N(C)C(=O)c2ccccc2)n1` [Compound 104], the “Number … of each cell/total number of cells” value in data set [1] (0.03 mM) was found to be 2.5 ± 0.8%; in data set [1] (0.1 mM), 4.1 ± 1.5%; in data set [1] (0.3 mM), 7.7 ± 3.8%; in data set [1] (1 mM), 3.6 ± 1.4%. Also, the LD50 at 24 h in “Acute toxicity on mice” was 500 to 1000 mg/kg.

For the compound `CC(=O)N(C)c1cc(C)nc(N2CCCCC2)n1` [Compound 384], the “Number … of each cell/total number of cells” value in data set [1] (0.3 mM) worked out at 10.4 ± 2.5%; in data set [1] (1 mM) it was 10.8 ± 7.2%. Moreover, the “Number of cells in which neurites appeared/total number of cells” value is reported as 8/50 in data set [2] (24 hours, 0.4 mM) and 3/50 in data set [2] (48 hours, 0.4 mM).

`CNc1ccnc(N2CCCCC2)n1` [Compound 1014]: the entries for the “Number … of each cell/total number of cells” value in data set [1] (0.1 mM) and in data set [1] (0.3 mM) were 4.7 ± 0.7% and 7.6 ± 1.5%, respectively. In addition, the “Number of cells in which neurites appeared/total number of cells” value is 3/50 in data set [2] (24 hours, 0.1 mM); 9/50 in data set [2] (24 hours, 0.4 mM); 6/50 in data set [2] (48 hours, 0.4 mM).

For `CN(C(=O)c1ccccc1)c1ccnc(N2CCOCC2)n1` [Compound 336], the “Number … of each cell/total number of cells” value in data set [1] (0.1 mM) turned out to be 5.8 ± 2.4%; in data set [1] (0.3 mM), 6.3 ± 2.8%. Also, the “Number of cells in which neurites appeared/total number of cells” value in data set [2] (24 hours, 0.2 mM) was 3/54; in data set [2] (48 hours, 0.5 mM), 2/50.

On to `CN(C(=O)c1ccc(F)cc1)c1ccnc(N2CCC(c3ccccc3)CC2)n1` [Compound 242], for which the entries for the “Number … of each cell/total number of cells” value in data set [1] (0.1 mM), in data set [1] (0.3 mM) and in data set [1] (1 mM) were 17.0 ± 2.3%, 12.8 ± 6.3% and 9.4 ± 3.9%, respectively. Also, the “Number of cells in which neurites appeared/total number of cells” value is on record as 4/50 in data set [2] (24 hours, 0.2 mM); 6/50 in data set [2] (24 hours, 0.4 mM); 6/50 in data set [2] (48 hours, 0.1 mM); 11/50 in data set [2] (48 hours, 0.2 mM).

With `COCc1nc(N2CCCCC2)ncc1C(=O)OC` [Compound 820, 2-piperidino-4-methoxymethyl-5-methoxycarbonylpyrimidine], the “Number … of each cell/total number of cells” value in data set [1] (1 mM) came out at 8.4 ± 1.1%; in data set [1] (3 mM), 8.8 ± 2.3%. For the same compound, the “Number of cells in which neurites appeared/total number of cells” value in data set [2] (24 hours, 0.1 mM) was 4/50; in data set [2] (24 hours, 0.5 mM), 5/53; in data set [2] (48 hours, 0.1 mM) it was 4/50; in data set [2] (48 hours, 0.25 mM), 5/55.

For `Cc1ccc(S(=O)(=O)O)cc1.Cc1ccccc1C(=O)N(C)c1ccnc(N2CCC(c3ccccc3)CC2)n1` [Compound 171-7], the “Number … of each cell/total number of cells” value in data set [1] (0.03 mM) was found to be 8.5 ± 1.0%; in data set [1] (0.1 mM), 6.7 ± 3.1%. In addition, the “Number of cells in which neurites appeared/total number of cells” value was 4/50 in data set [2] (24 hours, 0.1 mM) and 2/50 in data set [2] (48 hours, 0.1 mM).
